Experimental findings from PMC4128473 (Bioorganic & medicinal chemistry, 2014) are described below.

In the experiment the target is T1, hA3AR (Homo sapiens, UniProt P0DMS8).
T1 sequence (P0DMS8 1-318): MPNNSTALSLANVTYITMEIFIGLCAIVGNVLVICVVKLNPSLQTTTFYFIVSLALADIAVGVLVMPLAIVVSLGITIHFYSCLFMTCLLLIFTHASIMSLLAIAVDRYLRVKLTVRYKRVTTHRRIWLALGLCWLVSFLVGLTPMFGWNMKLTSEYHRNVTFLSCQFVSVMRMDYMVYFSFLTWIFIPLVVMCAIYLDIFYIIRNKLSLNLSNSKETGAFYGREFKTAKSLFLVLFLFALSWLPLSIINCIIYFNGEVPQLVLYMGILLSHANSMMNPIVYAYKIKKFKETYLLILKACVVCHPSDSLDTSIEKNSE
Format: cell-based. As to conditions: compared to Cl-IB-MECA as reference full agonist.

Take `COc1ccc(Cl)cc1CNc1ncnc2c1ncn2[C@@H]1OC[C@](O)(CO)[C@H]1O` [10c, 1′-[N^6-(2-Methoxy-5-chlorobenzyl)-adenin-9-yl]-β-D-apio-D-furanose]: the “functional behaviour at hA3AR (cAMP assay)” value is “inactive”.
For the molecule `COc1ccc(Cl)cc1CNc1ncnc2c1ncn2[C@@H]1OC[C@@](O)(CO)[C@H]1O` [11c, 1′-[N^6-(2-Methoxy-5-chlorobenzyl)adenin-9-yl]-α-D-apio-L-furanose], the “functional behaviour at hA3AR (cAMP assay)” value is “partial agonist”.
